Bounds are passed on as bounds.

In one test the test system is U2OS_Bim cells. The test can be described thus: Apoptosis inhibition assay (Bim-induced apoptosis, cell viability by ATP level). The format is cell-based.
Conditions: not given
Here is the method: A chemical library containing 200000 compounds was screened according to the following procedure: U2OS_Bim cells (a cell line in which the BH3-only protein Bim can be inducibly expressed by the addition of Doxycycline to the growth medium)^[2] were plated in 384-well plates with 30 μl medium at a density of 500 cells per well. 16 hrs after plating, test compounds were transferred from stock plates to the assay plates with the cultured cells. Positive control (20 μM zVAD) and negative control (DMSO) were added to every plate. 1 hr after compound treatment, 0.1 ug/mL Doxycyclin (DOX) was added to induce the expression of the Bim protein. After 24 hrs, cell viability was determined by measuring the ATP levels using a Cell Titer-Glo kit (Promega, G7570) according to the manufacturer's instructions. Luminescence was recorded with a PerkinElmer EnSpire Multimode Plate Reader. Compounds that could rescue cell viability to a level above 50% were selected; these compounds were then screened a second time for assurance.
U2OS_Bim or U2OS_tBid cells were plated at a density of 3000 cells per well in 96-well plates. 24 hrs later, cells were treated with experimental compounds, zVAD (positive control) and DMSO (Negative control) for one hour. The cells were then treated with 0.1 μg/mL DOX to trigger apoptosis. 24 hours after the addition of DOX, cell viability was determined by measuring the ATP levels using a Cell Titer-Glo kit. Cell survival rate was calculated.
U2OS_Bim cells (a U2OS stable cell line transfected with a Bim transgene) were cultured in DMEM culture medium (Gibico). On day one, U2OS_Bim cells were plated in 96-well plates at a density of 3000 cells per well. On day two, cells were pretreated with compounds for one hour. Then cells were treated with 0.1 μg/mL doxycycline (DOX) to trigger apoptosis. 24 hours after DOX treatment, cell viability was determined by measuring the ATP levels using the Cell Titer-Glo kit (G7570, Promega), according to the manufacturer's instructions. Luminescence was recorded with a PerkinElmer EnSpire Multimode Plate Reader. Survived cells were normalized to those cells treated with DMSO. zVAD (20 μM) was used as a positive control. Activity data for compounds […] are represented as means f standard deviation of duplicates; activity data for compounds 187-274 are estimated based on preliminary results.
As for `CS(=O)(=O)c1nc(-c2cccc(OCc3ccccc3)c2)cc(C(F)(F)F)n1` [Compound 75, 4-(3-(benzyloxy)phenyl)-2-(methylsulfonyl)-6-(trifluoromethyl)pyrimidine], the EC50 was 1 to 20 µM.

Consider `CS(=O)(=O)c1nc(-c2ccc(=O)n(Cc3ccccc3)c2)cc(C(F)(F)F)n1` [Compound 103, 1-Benzyl-5-(2-(methylsulfonyl)-6-(trifluoromethyl)pyrimidin-4-yl)pyridin-2 (1H)-one], for which the EC50 is 1 to 10 µM.

The test is the same for the next values; noted with them: U2OS_Bim cells; means of duplicates; numbering of Tables 4a/4b; read-out: EC50.
Regarding `C[S+]([O-])c1nc(-c2cccc(Oc3ccccc3)c2)cc(C(F)(F)F)n1` (stereo not drawn) [Compound 74, 2-(methylsulfinyl)-4-(3-phenoxyphenyl)-6-(trifluoromethyl)pyrimidine], the EC50 is less than 100 µM.

With `CS(=O)(=O)c1nc(-c2cccc3ccccc23)cc(C(F)(F)F)n1` [Compound 76, 2-(methylsulfonyl)-4-(naphthalen-1-yl)-6-(trifluoromethyl)pyrimidine], the EC50 was in the range of 1 to 20 µM.

For the compound `C[S+]([O-])c1nc(-c2cccc3ccccc23)cc(C(F)(F)F)n1` (stereo not drawn) [Compound 77, 2-(methylsulfinyl)-4-(naphthalen-1-yl)-6-(trifluoromethyl)pyrimidine], the EC50 is less than 100 µM.

As to `COc1ncccc1-c1cc(C(F)(F)F)nc(S(C)(=O)=O)n1` [Compound 78, 4-(2-methoxypyridin-3-yl)-2-(methylsulfonyl)-6-(trifluoromethyl)pyrimidine], the EC50 was less than 100 µM.

For the compound `COc1ncccc1-c1cc(C(F)(F)F)nc([S+](C)[O-])n1` (stereo not drawn) [Compound 79, 4-(2-Methoxypyridin-3-yl)-2-(methylsulfinyl)-6-(trifluoromethyl)pyrimidine], the EC50 is less than 100 µM.

Regarding `CS(=O)(=O)c1nc(-c2ccc[nH]c2=O)cc(C(F)(F)F)n1` [Compound 80, 3-(2-(methylsulfonyl)-6-(trifluoromethyl)pyrimidin-4-yl)pyridin-2 (1H)-one], the EC50 is less than 100 µM.

As to `C[S+]([O-])c1nc(-c2ccc[nH]c2=O)cc(C(F)(F)F)n1` (stereo not drawn) [Compound 81, 3-(2-(methylsulfinyl)-6-(trifluoromethyl)pyrimidin-4-yl)pyridin-2 (1H)-one], the EC50 is less than 100 µM.

As to `C[S+]([O-])c1nc(N2CCOCC2)cc(C(F)(F)F)n1` (stereo not drawn) [Compound 82, 4-(2-(methylsulfinyl)-6-(trifluoromethyl)pyrimidin-4-yl)morpholine], the EC50 is less than 100 µM.

Take `CS(=O)(=O)c1nc(-n2cccn2)cc(C(F)(F)F)n1` [Compound 83, 2-(methylsulfonyl)-4-(1H-pyrazol-1-yl)-6-(trifluoromethyl)pyrimidine]: the half-maximal effective concentration (EC50) lay in the range of 1 to 10 µM.

Turning to `CS(=O)(=O)c1nc(-c2ccc[nH]2)cc(C(F)(F)F)n1` [Compound 84, 2-(methylsulfonyl)-4-(1H-pyrrol-2-yl)-6-(trifluoromethyl)pyrimidine], the EC50 was 1 to 10 µM.

`COc1ccc(Cn2cccc2-c2cc(C(F)(F)F)nc(S(C)(=O)=O)n2)cc1OC` [Compound 85, 4-(1-(3,4-dimethoxybenzyl)-1H-pyrrol-2-yl)-2-(methylsulfonyl)-6-(trifluoromethyl)pyrimidine]: the EC50 was in the range of 1 to 10 µM.

`COc1ccc(Cn2cccc2-c2cc(C(F)(F)F)nc([S+](C)[O-])n2)cc1OC` (stereo not drawn) [Compound 86, 4-(1-(3,4-dimethoxybenzyl)-1H-pyrrol-2-yl)-2-(methylsulfinyl)-6-(trifluoromethyl)pyrimidine]: the EC50 is less than 100 µM.

For the compound `CS(=O)(=O)c1nc(-c2cc[nH]c2)cc(C(F)(F)F)n1` [Compound 87, 2-(methylsulfonyl)-4-(1H-pyrrol-3-yl)-6-(trifluoromethyl)pyrimidine], the EC50 was less than 100 µM.

With `C[S+]([O-])c1nc(-c2cc[nH]c2)cc(C(F)(F)F)n1` (stereo not drawn) [Compound 88, 2-(methylsulfinyl)-4-(1H-pyrrol-3-yl)-6-(trifluoromethyl)pyrimidine], the EC50 was less than 100 µM.

For the compound `COc1cccc(Cn2ccc(-c3cc(C(F)(F)F)nc(S(C)(=O)=O)n3)c2)c1` [Compound 89, 4-(1-(3-methoxybenzyl)-1H-pyrrol-3-yl)-2-(methylsulfonyl)-6-(trifluoromethyl)pyrimidine], the EC50 was less than 100 µM.

Turning to `COc1cccc(Cn2ccc(-c3cc(C(F)(F)F)nc([S+](C)[O-])n3)c2)c1` (stereo not drawn) [Compound 90, 4-(1-(3-methoxybenzyl)-1H-pyrrol-3-yl)-2-(methylsulfinyl)-6-(trifluoromethyl)pyrimidine], the EC50 was less than 100 µM.

Consider `COc1ccc(Cn2ccc(-c3cc(C(F)(F)F)nc(S(C)(=O)=O)n3)c2)cc1` [Compound 91, 4-(1-(4-methoxybenzyl)-1H-pyrrol-3-yl)-2-(methylsulfonyl)-6-(trifluoromethyl)pyrimidine], for which the EC50 was less than 100 µM.

With `COc1ccc(Cn2ccc(-c3cc(C(F)(F)F)nc([S+](C)[O-])n3)c2)cc1` (stereo not drawn) [Compound 92, 4-(1-(4-methoxybenzyl)-1H-pyrrol-3-yl)-2-(methylsulfinyl)-6-(trifluoromethyl)pyrimidine], the EC50 was less than 100 µM.

Consider `CS(=O)(=O)c1nc(-c2ccn(Cc3cccc(Cl)c3)c2)cc(C(F)(F)F)n1` [Compound 93, 4-(1-(3-chlorobenzyl)-1H-pyrrol-3-yl)-2-(methylsulfonyl)-6-(trifluoromethyl)pyrimidine], for which the EC50 is less than 100 µM.

Take `C[S+]([O-])c1nc(-c2ccn(Cc3cccc(Cl)c3)c2)cc(C(F)(F)F)n1` (stereo not drawn) [Compound 94, 4-(1-(3-chlorobenzyl)-1H-pyrrol-3-yl)-2-(methylsulfinyl)-6-(trifluoromethyl)pyrimidine]: the EC50 was less than 100 µM.

As for `CS(=O)(=O)c1nc(-c2ccn(Cc3ccc(Cl)cc3)c2)cc(C(F)(F)F)n1` [Compound 95, 4-(1-(4-chlorobenzyl)-1H-pyrrol-3-yl)-2-(methylsulfonyl)-6-(trifluoromethyl)pyrimidine], the EC50 is less than 100 µM.

Consider `C[S+]([O-])c1nc(-c2ccn(Cc3ccc(Cl)cc3)c2)cc(C(F)(F)F)n1` (stereo not drawn) [Compound 96, 4-(1-(4-chlorobenzyl)-1H-pyrrol-3-yl)-2-(methylsulfinyl)-6-(trifluoromethyl)pyrimidine], for which the EC50 was less than 100 µM.

Take `CS(=O)(=O)c1nc(-c2ccn(Cc3cccc(C#N)c3)c2)cc(C(F)(F)F)n1` [Compound 97, 3-((3-(2-(methylsulfonyl)-6-(trifluoromethyl)pyrimidin-4-yl)-1H-pyrrol-1-yl)methyl)benzonitrile]: the EC50 is less than 100 µM.

As to `C[S+]([O-])c1nc(-c2ccn(Cc3cccc(C#N)c3)c2)cc(C(F)(F)F)n1` (stereo not drawn) [Compound 98, 3-((3-(2-(methylsulfinyl)-6-(trifluoromethyl)pyrimidin-4-yl)-1H-pyrrol-1-yl)methyl)benzonitrile], the EC50 is less than 100 µM.

Take `CS(=O)(=O)c1nc(-c2ccc(=O)[nH]c2)cc(C(F)(F)F)n1` [Compound 99, 5-(2-(methylsulfonyl)-6-(trifluoromethyl)pyrimidin-4-yl)pyridin-2 (1H)-one]: the 50% effective concentration (EC50) was less than 100 µM.

In the case of `C#CCn1cc(-c2cc(C(F)(F)F)nc(S(C)(=O)=O)n2)ccc1=O` [Compound 100, 5-(2-(methylsulfonyl)-6-(trifluoromethyl)pyrimidin-4-yl)-1-(prop-2-yn-1-yl) pyridin-2 (1H)-one], the EC50 fell in the range of 0.001 to 1 µM.

On to `C#CCn1cc(-c2cc(C(F)(F)F)nc([S+](C)[O-])n2)ccc1=O` (stereo not drawn) [Compound 101, 5-(2-(methylsulfinyl)-6-(trifluoromethyl)pyrimidin-4-yl)-1-(prop-2-yn-1-yl) pyridin-2 (1H)-one], for which the EC50 lay in the range of 1 to 10 µM.

On to `CS(=O)(=O)c1nc(-c2ccc(=O)n(CCN=[N+]=[N-])c2)cc(C(F)(F)F)n1` [Compound 102, 1-(2-azidoethyl)-5-(2-(methylsulfonyl)-6-(trifluoromethyl)pyrimidin-4-yl) pyridin-2 (1H)-one], for which the EC50 was in the range of 1 to 10 µM.

As to `CS(=O)(=O)c1nc(-c2ccc(=O)n(Cc3ccccc3Cl)c2)cc(C(F)(F)F)n1` [Compound 104, 1-(2-chlorobenzyl)-5-(2-(methylsulfonyl)-6-(trifluoromethyl)pyrimidin-4-yl)pyridin-2 (1H)-one], the EC50 is 0.001 to 1 µM.

On to `CS(=O)(=O)c1nc(-c2ccc(=O)n(Cc3cccc(Cl)c3)c2)cc(C(F)(F)F)n1` [Compound 105, 1-(3-chlorobenzyl)-5-(2-(methylsulfonyl)-6-(trifluoromethyl)pyrimidin-4-yl)pyridin-2 (1H)-one], for which the EC50 was 0.001 to 1 µM.

For `CS(=O)(=O)c1nc(-c2ccc(=O)n(Cc3ccc(Cl)cc3)c2)cc(C(F)(F)F)n1` [Compound 106, 1-(4-chlorobenzyl)-5-(2-(methylsulfonyl)-6-(trifluoromethyl)pyrimidin-4-yl)pyridin-2 (1H)-one], the EC50 lay within 0.001 to 1 µM.

The values above are taken from US11725000B2, “Apoptosis inhibitors” (National Institute of Biological Sciences, Beijing, priority 2017, dated 2023).
